In US6124293A, “Semi-synthetic ecteinascidins” (The Board of Trustees of the University of Illinois, priority 1999, dated 2000):

Tests used:
L1210 murine leukemia = experiment: in vitro cytotoxicity to L1210 murine leukemia; assay type: cell-based; details: potency relative to Et 743
Text: In view of the exceptional antitumor properties of the natural ecteinascidins, the present invention has studied the antitumor activities of the semi-synthetic analogs prepared herein.

B16 melanoma = details: recent experiments, NCI evaluation; cited from earlier work
[1] = tested on: P388 murine leukemia, B16 melanoma, Lewis lung carcinoma, and several human tumor xenograft models; details: activity against P388, B16, Lewis lung, human tumor xenografts in mice; cited from earlier work

| SMILES | IC50 (Et 743)/IC50 (L1210 murine leukemia) | survivors 60 days following infection with B16 melanoma (B16 melanoma) | efficacy in vivo [1] |
| --- | --- | --- | --- |
| COc1cc2c(cc1O)CCN[C@]21CSC2c3c(OC(C)=O)c(C)c4c(c3C(COC1=O)N1C2C2NC(Cc3cc(C)c(OC)c(O)c32)[C@@H]1O)OCO4 (stereo partly drawn) [Et 729] | 10 | 8 of 10 | promising efficacy in vivo |
| COc1cc2c(cc1O)CCN(C)[C@]21CSC2c3c(OC(C)=O)c(C)c4c(c3C(COC1=O)N1C2C2NC(Cc3cc(C)c(OC)c(O)c32)[C@@H]1O)OCO4 (stereo partly drawn) [Iso-Et 743] | 17 |  |  |
| COc1cc2c(cc1O)CCN[C@]21CSC2c3c(OC(C)=O)c(C)c4c(c3C(COC1=O)N1C2C2c3c(cc(C)c(OC)c3O)CC([C@@H]1O)N2C)OCO4 (stereo partly drawn) [Et 743] |  |  | promising efficacy in vivo |
| COC(=O)C(C(=O)OC)[C@H]1C2Cc3cc(C)c(OC)c(O)c3C(C3C4SC[C@]5(NCCc6cc(O)c(OC)cc65)C(=O)OCC(c5c6c(c(C)c(OC(C)=O)c54)OCO6)N31)N2C (stereo partly drawn) [Et 875] | 1 |  |  |
| COc1cc2c(cc1O)CCN(C)[C@]21CSC2c3c(OC(C)=O)c(C)c4c(c3C(COC1=O)N1C2C2c3c(cc(C)c(OC)c3O)CC([C@@H]1O)N2C)OCO4 (stereo partly drawn) [Et 757] | 50 |  |  |
| COc1c(C)cc2c(c1O)[C@H]1N[C@@H](C2)[C@H](O)N2[C@H]1[C@@H]1SC[C@]3(NCCc4c3[nH]c3ccccc43)C(=O)OC[C@H]2c2c3c(c(C)c(OC(C)=O)c21)OCO3 [Et 722] |  |  | promising efficacy in vivo |
| COc1cc2c(cc1O)CCNC21CSC2c3c(OC(C)=O)c(C)c4c(c3C(COC1=O)N1C(O)C3Cc5cc(C)c(OC)c(O)c5C(C21)N3Cc1ccc(CN2C3Cc5cc(C)c(OC)c(O)c5C2C2C5SCC6(NCCc7cc(O)c(OC)cc76)C(=O)OCC(c6c7c(c(C)c(OC(C)=O)c65)OCO7)N2C3O)cc1)OCO4 (stereo not drawn) [Et 1560] | 0.25 |  |  |
